# Experiments:
# [1] = system: naïve T helper cells; experiment: T helper cell number and viability (Guava ViaCount); type: cell-based, human; conditions: day 7
# Description: To examine the effect of compounds and methods of the present invention on T helper cell number and viability, the following studies were performed. Human cord blood naive T helper cells (AllCells LLC, Emeryville, Calif.) were stimulated (i.e., T cell receptor (TCR) stimulation) by seeding into 96-well culture dishes coated with 5 μg/ml anti-CD3 antibody (clone UCHT1, R&D Systems, Minneapolis, Minn.), and 5 μg/ml anti-CD28 antibody (clone ANC28.1/D10, Ancell Corporation, Bayport, Minn.), and cultured at 37° C, 5% CO2 in RPMI-1640 (Mediatech Inc., Herndon, Va.) containing 1% FBS, 1 U/ml penicillin-1 μg/ml streptomycin (invitrogen Corporation, Carlsbad, Calif.), and 50 U/ml IL-2 (Roche Diagnostics Corporation, Indianapolis, Ind.). […] The T helper cells were then collected and cell number and cell viability were analyzed using Guava ViaCount reagents and the Guava PCA System (Guava Technologies, Hayward, Calif.).
# In another set of experiments, the effect of compounds and methods of the present invention on T helper cell number and viability was determined. […] The T helper cells were then collected and cell number and cell viability were analyzed using Guava ViaCount reagents and the Guava PCA System (Guava Technologies, Hayward, Calif.).
# [2] = system: Naive T helper cells; experiment: Secretion of pro-inflammatory cytokines (IFN-γ, TNF-α) from TCR-stimulated T helper cells, conditioned media; type: cell-based, human; conditions: seven days
# Description: The effect of methods and compounds of the present invention on T helper cell secretion of pro-inflammatory cytokines was evaluated as follows. Naive T helper cells (AllCells LLC, Emeryville, Calif.) obtained from human cord blood were stimulated (i.e., T cell receptor (TCR) stimulation) by seeding into 96-well culture dishes coated with 5 μg/ml anti-CD3 antibody (clone UCHT1, R&D Systems, Minneapolis, Minn.) (Tanaka et.al. (1989) J Immunol 142:2791-2795.), and 5 μg/ml anti-CD28 antibody (clone ANC28.1/D10, Ancell Corporation, Bayport, Minn.), and cultured at 37° C., 5% CO2 in RPMI-1640 (Mediatech Inc., Herndon, Va.) containing 1% FBS, 1 U/ml penicillin-1 μg/ml streptomycin (Invitrogen Corporation, Carlsbad, Calif.), and 50 U/ml IL-2 (Roche Diagnostics Corporation, Indianapolis, Ind.). At the time of seeding, cells were cultured with media alone or with media containing 2 ng/ml IL-12 (R&D Systems, Minneapolis, Minn.) (to stimulate differentiation of the T helper cells into Th1 cells) and 10 μg/ml anti-IL4 antibody (R&D Systems, Minneapolis, Minn.) (to block differentiation of the T helper cells into Th2 cells). Compound A or 1% DMSO (Veh) was added to the existing media and the cells were cultured for an additional seven days. The conditioned media was then collected from the cell cultures and analyzed for interferon-gamma (IFN-γ) and tumor necrosis factor-alpha (TNF-α) levels using MS2400 Human Tissue Culture Cytokine Detection Kits (MesoScale Technologies, Gaithersburg, Md.) according to the manufacturer's instructions. In another series of experiments, the effect of methods and compounds of the present invention on T helper cell secretion of pro-inflammatory cytokines was evaluated as follows. Naive T helper cells were stimulated substantially as described above with the following modification: cell cultures contained 100 U/ml penicillin-100 U/ml streptomycin. Various compounds of the present invention or 1% DMSO (Veh) was added to the existing media and the cells were cultured for an additional six days. Following stimulation with IL-12, conditioned media was then collected from the cell cultures and analyzed for interferon-gamma (IFN-γ) levels using MS2400 Human Tissue Culture Cytokine Detection Kits (MesoScale Technologies, Gaithersburg, Md.) according to the manufacturer's instructions.
# [3] = TCR-stimulated T helper cells with 2 ng/ml IL-12 and anti-IL4 antibody, vs IL-12 and vehicle
# [4] = TCR-stimulated T helper cells, without IL-12 addition, vs vehicle
smiles,measurement,setting,value
"Cc1nc(C(=O)NCC(=O)O)c(O)c2ccc(Oc3ccccc3)cc12 [Compound A, [(4-Hydroxy-1-methyl-7-phenoxy-isoquinoline-3-carbonyl)-amino]-acetic acid]",percent of viable T helper cells,[1],did not decrease
same,total number of viable T helper cells,[1],did not decrease
same,IL-12-induced increase in IFN-γ levels,[2]; [3],inhibited the increase
same,IL-12-induced increase in TNF-α levels,[2]; [3],inhibited the increase
same,IFN-γ levels in the conditioned media,[2]; [4],reduction
same,TNF-α levels in the conditioned media,[2]; [4],reduction
